Article PMC10348910, “Epigenetic reprogramming of cell cycle genes by ACK1 promotes breast cancer resistance to CDK4/6 inhibitor” (Oncogene, 2023)
Values belong to the compound of their own block, whether it stands above or below them.

Legend:
[1] = tested on: advanced ER+/AR+ breast cancer; set-up: method as in NCT00755885; conditions: ref NCT00755885, cited from earlier work
AR+ TNBC = tested on: AR+ TNBC; set-up: method as in PMID 29373071, PMID 25944485; conditions: cited from earlier work
BT549 = test: proliferation assay, trypan blue exclusion; type: cell-based; conditions: BT549 (lacking Rb), 96 h
Procedure: (§1) A–F Breast cancer cells were treated with either vehicle or (R)-9b for 48 h; cells were harvested and processed for cell cycle analysis using propidium iodide staining, followed by flow cytometry. G BT549 and H MDA-MB-468 cells were treated with varying drug concentrations of palbociclib or (R)-9b for 96 h and the cell viability assessed using trypan blue exclusion method. I BT549, and J MDA-MB-468 cells were treated with 1 µM palbociclib or (R)-9b for 48 h and subjected to cell cycle analysis using propidium iodide staining, followed by flow-cytometry. Palbociclib-resistant MDA-MB-231 (K) and HCC-1395 (L) were generated and treated with varying drug concentrations of palbociclib or (R)-9b for 96 h and the cell viability assessed using trypan blue exclusion method.
(§2) For proliferation assay, 5 × 10^4 cells were plated in 6-well plate and treated with either vehicle (DMSO) or varying concentrations of (R)-9b or palbociclib in complete media for 96 h and number of viable cells were counted by trypan blue exclusion assay. Breast cancer cell lines were treated with vehicle or varying concentrations of (R)-9b for 72 h. The cells were harvested, washed 2 times with PBS and incubated with 3 ul of Annexin V-FITC antibody according to the manufacturers protocol (BD Biosciences). Five µl Propidium iodide was used to stain necrotic cells. The cells were acquired using the BD FACSCalibur machine (BD Biosciences) and data was analyzed using FlowJo software. Cell cycle analysis was performed as mentioned earlier. Briefly, vehicle or (R)-9b (48 h) treated cells were harvested by trypsinization, washed 2 times with PBS, and fixed using chilled 70% Ethanol for 1 h, followed by 2 washes with PBS. The cell pellets were treated with 50 µl RNase A (100 µg/ml; Sigma) for 15 min at 37 °C and Propidium Iodide (PI; 50 µg/ml, Sigma) was added to these cells, followed by acquisition using BD FACS Canto-II or FACSCalibur machines. The data were analyzed using FlowJo software.

MDA-MB-468 = test: proliferation assay, trypan blue exclusion; type: cell-based; conditions: MDA-MB-468 (lacking Rb), 96 h
Procedure: as §1, §2

MDA-MB-468 xenografts = test: MDA-MB-468 xenograft in mammary fat pad; type: in vivo, female SCID mice
Procedure: To validate these findings in breast tumors, MDA-MB-468 cells were injected in female SCID mice. Once palpable tumors were formed (5 weeks), mice were treated with vehicle (6% captisol), palbociclib (80 mg/Kg of body weight), (R)-9b (36 mg/Kg of body weight) by oral route, or (R)-9b (24 mg/Kg of body weight) by subcutaneous injection, five times a week.
Fig. 7 ACK1 inhibitor overcomes palbociclib-resistant breast cancer growth and metastasis. A 3 × 10^6 MDA-MB-468 cells were injected in the 4th inguinal mammary fat pad of female SCID mice. Once the tumors were palpable, the mice were treated with either vehicle (Captisol; n = 7), Palbociclib at 80 mg/kg (n = 6), or (R)-9b at 36 mg/Kg (n = 6) orally. In addition, mice were injected with (R)-9b at 24 mg/Kg (n = 7) subcutaneously. Mice were treated five times a week, for 22 days. B, C The tumors were harvested and photographed, and the weights were recorded. D Vehicle or (R)-9b treated breast cancer cells were subjected to ChIP using pY88-H4 antibody, followed by qPCR for CXCR4 gene. E CXCR4 mRNA transcript levels in vehicle or (R)-9b treated MDA-MB-231 cells. 18S rRNA was used as housekeeping gene. F MDA-MB-231 cells were transfected with ACK1 or scrambled siRNA, followed by qRT-PCR to determine CXCR4 mRNA transcript levels. G Representative lung metastatic deposits of MDA-MB-231 cells injected via the tail veins in female SCID mice, treated with either vehicle or 24 mg/Kg (R)-9b orally. H Graphical quantitation of lung metastatic deposit. I and J 5 × 10^5 luciferase expressing 4T1 cells were injected into 4th inguinal mammary fat pad of female BALB/c mice. Once the tumors were palpable, mice were treated with either vehicle or (R)-9b at 24 mg/Kg (n = 3, each) subcutaneously for 2 weeks, five times a week. The metastases were assessed using IVIS. Data are represented as the mean ± SEM. *p < 0.05; **p < 0.01; ***p < 0.001. For (A, C–F, I), p values were calculated using unpaired two-tailed Student’s t test.
All animal experiments were performed using the standards for humane care in accordance with the NIH Guide for the Care and Use of Laboratory Animals. Mice were obtained from Charles River Laboratories and experiments were performed according to IACUC protocols (IACUC # 20180259) approved in writing by Washington University in St. Louis Department of Comparative Medicine (DCM). 1.5 × 10^6 Cal-148 or MCF7, or 3 × 10^6 MDA-MB-468 cells were suspended in 200 µl of PBS with 50% matrigel (BD Biosciences) and were implanted subcutaneously into the mammary fat pad (between fourth and fifth inguinal) of female SCID C.B17 mice (n = 8 per group). Once the tumors were palpable (about 4–5 weeks), mice were randomly chosen for subcutaneous injection (Cal-148 and MCF7; 24 mg/Kg body weight) or given oral gavage with (R)-9b (MCF7; 36 mg/Kg body weight) resuspended in 6% Captisol (or 6% Captisol in PBS as vehicle), five times a week, for 4–5 weeks. Tumor volumes were measured twice a week using calipers. At the end of the study, all mice were humanely euthanized, tumors extracted and weighed.

[2] = human, plasma
in vitro [3] = conditions: human
in vitro [4] = conditions: rat

SMILES: C[C@]12CC[C@H](O)CC1=CC[C@@H]1[C@@H]2CC[C@]2(C)C(c3cccnc3)=CC[C@@H]12 [abiraterone]
clinical benefit rate ([1]; in 24 weeks): 20% | median progression-free survival duration [1]: 2.8 months

SMILES: CNC(=O)c1ccc(N2C(=S)N(c3ccc(C#N)c(C(F)(F)F)c3)C(=O)C2(C)C)cc1F [enzalutamide]
clinical benefit rate (AR+ TNBC; at 16 weeks): 33% | median progression-free survival duration (AR+ TNBC): 3.3 months

weights of the mice (MDA-MB-468 xenografts; palbociclib 80 mg/Kg, (R)-9b 36 mg/Kg oral or 24 mg/Kg subcutaneous): modest decrease in weights
SMILES: CC(=O)c1c(C)c2cnc(Nc3ccc(N4CCNCC4)cn3)nc2n(C2CCCC2)c1=O [palbociclib, reference compound]
sensitivity (cell proliferation) (BT549): resistant | sensitivity (cell proliferation) (MDA-MB-468): resistant | xenograft tumor growth (MDA-MB-468 xenografts; palbociclib 80 mg/Kg oral, (R)-9b 36 mg/Kg oral or 24 mg/Kg subcutaneous, five times a week, 3 weeks): robust tumor growth | histology (H&E) of heart, spleen, kidneys and livers (MDA-MB-468 xenografts; palbociclib 80 mg/Kg, (R)-9b oral and subcutaneous): did not reveal histological abnormalities

% Bound [2]: 98.53% | % Unbound [2]: 1.47% | recovery (in vitro [3]; % Recovery): 92.3% | fraction unbound (in vitro [3]; plasma, % Bound): 0.0147 | remaining at 6 h (in vitro [3]; plasma, % Remaining at 6 hr): 97.8% | fraction unbound (in vitro [3]; plasma, % Unbound): 0.0147 | recovery (in vitro [4]; % Recovery): 86.7% | fraction unbound at 6 h (in vitro [4]; plasma, % Bound): 0.0069 | remaining at 6 h (in vitro [4]; plasma, % Remaining at 6 hr): 88.2% | fraction unbound at 6 h (in vitro [4]; plasma, % Unbound): 0.0069
SMILES: CC(=O)CC(c1ccccc1)c1c(O)c2ccccc2oc1=O (stereo not shown) [warfarin]
